Test results published in patent publication US9557338B2 (SIGNAL PHARMACEUTICALS, LLC, priority 2012, dated 2017).
Read-outs that look alike come from different tables or passages of the source.

Columns and labels:
[1] = system: Phospho-p70S6K (T389); assay: MSD assay, phospho-p70S6K (T389) in cell lysates; type: cell-based
Protocol: Determination of Phospho-p70S6K (T389) in Cell Lysates.
MSD® biomarker detection assays provide a rapid and convenient method for measuring the total and phosphorylated levels of protein targets within a single small-volume sample. In the assay, an antibody for a specific protein target is coated on one electrode (or spot) per well. The samples (cell lysates) are added to the well with a solution containing the detection antibody labeled with an electrochemiluminescent (ECL) compound, MSD SULFOTAG™ label, over the course of one or more incubation periods. The total protein present in the sample binds to the capture antibodies immobilized on the working electrode surface; recruitment of the labeled detection antibody by bound phospho-p70S6K completes the sandwich. MSD Read Buffer that provides the appropriate chemical environment for ECL is added and the plate is read using an MSD SECTOR™ Imager. Inside the SECTOR Imager, a voltage is applied to the plate electrodes which cause the labels bound to the electrode surface to emit light. The instrument measures intensity of the emitted light to afford a quantitative measure of the amount of phosphorylated protein present in the sample.
Cells were plated in 96-well flat bottom plates at the required density determined for each cell line and the cells were allowed to equilibrate at 37° C., 5% CO2 overnight. The following day, the cells were treated with Compound 1 over a range of concentrations for one hour in 5% CO2 at 37° C. After the incubation period, the culture medium was removed carefully with an aspirator. The plate was placed on ice and 50 μL of 1× Tris Lysis Buffer were added to each well. The plate was placed on a shaker at 4° C. for one hour to lyse the cells. At that point, the plate was either frozen at −80° C. for later analysis or immediately assayed for phosphoproteins as described below. To monitor interassay variability, Compound 1 was compared among all plates as a reference standard.
The assay plate was incubated with 150 μL of MSD Blocking Buffer for one hour with shaking at room temperature. The plates were washed 3 times with Tris Wash Buffer. Then 35 μL of cell lysate was added to the wells and incubated for one hour with shaking at room temperature. The solution was removed from the wells and the plate was washed 3 times with wash buffer. Twenty-five microliters of the appropriate antibody solution was then incubated for one hour with shaking at room temperature. The solution was removed from the wells and the plate was washed 3 times with wash buffer. Then 150 μL of 1×MSD Read Buffer T was added to each well. The plate was read on the SECTOR Imager plate reader.

[2] = system: GSK-3β; assay: MSD assay, GSK-3β phosphorylation in cell lysates; type: cell-based
[3] = PC3 cell line, read-out: MSD p70S6K
[4] = PC3 cell line, read-out: MSD GSK-3β

Compound | IC50 [1, 3] [nM] | IC50 [2, 4] [nM] | further results
Cc1cc(C(N)=O)ncc1-c1cnc2c(n1)N(C(C)C)C(=O)CN2 [C-118] | 170 | 3930 | 
CCN1C(=O)CNc2ncc(-c3cc(F)c(-c4nc[nH]n4)cc3C)nc21 [C-127] | 4 | 33 | 
COC1CCC(CN2C(=O)CNc3ncc(-c4ccc(-c5nc[nH]n5)nc4)nc32)CC1 (stereo not shown) [C-159] | 6 | > 500 | 
Cc1cc(-c2nc[nH]n2)c(F)cc1-c1cnc2c(n1)N(CC1CCC(O)CC1)CC(=O)N2 (stereo not shown) [C-143] | 4 | > 500 | 
Cc1nc(-c2nnc[nH]2)ccc1-c1cnc2c(n1)N(C(C)C)C(=O)CN2 [A-13, 1-isopropyl-7-(2-methyl-6-(4H-1,2,4-triazol-3-yl)pyridin-3-yl)-3,4-dihydropyrazino[2,3-b]pyrazin-2(1H)-one] |  |  | IC50 ([1]; Homo sapiens, HCT-116, HCT116 cell line, IGF, read-out: MSD p70S6K (IGF)): 941 nM; IC50 ([1]; Homo sapiens, U-87 MG, U87MG cell line, read-out: MSD p70S6K): 351 nM; IC50 ([2]; Homo sapiens, HCT-116, HCT116 cell line, IGF, read-out: MSD GSK-3β (IGF)): > 2000 nM; IC50 ([2]; Homo sapiens, U-87 MG, U87MG cell line, read-out: MSD GSK-3β): > 2000 nM
CCN1CC(=O)Nc2ncc(-c3ccc(-c4nc[nH]n4)nc3)nc21 [C-124] | 289 | > 500 | 
CO[C@H]1CC[C@H](N2C(=O)CNc3ncc(-c4ccc(-c5nnc[nH]5)nc4C)nc32)CC1 [A-11, 1-((1r,4r)-4-methoxycyclohexyl)-7-(2-methyl-6-(4H-1,2,4-triazol-3-yl)pyridin-3-yl)-3,4-dihydropyrazino[2,3-b]pyrazin-2(1H)-one] |  |  | IC50 ([1]; HCT116 cell line, IGF, read-out: MSD p70S6K (IGF)): 157 nM; IC50 ([1]; U87MG cell line, read-out: MSD p70S6K): 93.1 nM; IC50 ([2]; HCT116 cell line, IGF, read-out: MSD GSK-3β (IGF)): 202 nM; IC50 ([2]; U87MG cell line, read-out: MSD GSK-3β): 479 nM
O=C1CN(C2CCOCC2)c2nc(-c3ccc(-c4ncn[nH]4)nc3)cnc2N1 [C-125] | 73 | > 500 | 
COC1CCC(N2CC(=O)Nc3ncc(-c4cc(F)c(-c5ncn[nH]5)cc4C)nc32)CC1 (stereo not shown) [C-132] | 222 | > 500 | 
O=C1CN(CC2CCC(O)CC2)c2nc(-c3ccc(-c4nc[nH]n4)nc3)cnc2N1 (stereo not shown) [C-149] | 173 | > 5000 | 
CCN1CC(=O)Nc2ncc(-c3cc(F)c(-c4nc[nH]n4)cc3C)nc21 [C-119] | 10 | 323 | 
COCCN1C(=O)CNc2ncc(-c3cc(F)c(-c4nc[nH]n4)cc3C)nc21 [C-129] | 1 | > 500 | 
O=C1CN([C@H]2CC[C@H](O)CC2)c2nc(-c3ccc(-c4nc[nH]n4)nc3)cnc2N1 [C-144] | > 500 | > 500 | 
O=C1CNc2ncc(-c3ccc(-c4nc[nH]n4)nc3)nc2N1C1CCC(O)CC1 (stereo not shown) [C-140] | 70 | > 500 | 
Cc1cc(-c2nc[nH]n2)c(F)cc1-c1cnc2c(n1)N(C(C)C)CC(=O)N2 [C-120] | 12 | 99 | 
Cc1c(-c2cnc3c(n2)N(C2CCOCC2)CC(=O)N3)ccc(-c2nc[nH]n2)c1F [C-111] | 58 | > 150 | 
Cc1cc(-c2nc[nH]n2)c(F)cc1-c1cnc2c(n1)N(CC1CCC(O)CC1)C(=O)CN2 (stereo not shown) [C-142] | 18 | > 500 | 
O=C1CN(CCC2CCOCC2)c2nc(-c3c[nH]c4ncccc34)cnc2N1 [C-169] | 419 | 2820 | 
COC1CCC(N2CC(=O)Nc3ncc(-c4ccc(-c5ncn[nH]5)nc4)nc32)CC1 (stereo not shown) [C-146] | 12 | > 500 | 
Cc1cc(-c2nc[nH]n2)c(F)cc1-c1cnc2c(n1)N([C@H]1CC[C@@H](O)CC1)C(=O)CN2 [C-155] | 40 | 240 | 
O=C1CN(C2CCC(O)CC2)c2nc(-c3ccc(-c4nc[nH]n4)nc3)cnc2N1 (stereo not shown) [C-153] | > 500 | > 500 | 
Cc1cc(-c2nc[nH]n2)c(F)cc1-c1cnc2c(n1)N(C1CCC(O)CC1)CC(=O)N2 (stereo not shown) [C-123] | 13 | > 500 | 
COC1CCC(N2CC(=O)Nc3ncc(-c4ccc(-c5ncn[nH]5)nc4)nc32)CC1 (stereo not shown) [C-136] | 82 | > 500 | 
COC1CCC(CN2CC(=O)Nc3ncc(-c4cc(F)c(-c5nc[nH]n5)cc4C)nc32)CC1 (stereo not shown) [C-163] | > 500 | > 500 | 
O=C1CNc2ncc(-c3cccc4[nH]ncc34)nc2N1CCC1CCOCC1 [C-117] | > 5000 | > 5000 | 
CO[C@H]1CC[C@@H](CN2CC(=O)Nc3ncc(-c4cc(F)c(-c5nc[nH]n5)cc4C)nc32)CC1 [C-160] | < 1.5 | > 500 | 
CC(C)N1CC(=O)Nc2ncc(-c3ccc(-c4nc[nH]n4)nc3)nc21 [C-134] | 172 | > 500 | 
